Measured values as given in patent publication US6177404A (Merck & Co., Inc., priority 1998, dated 2001).
pEC50: −log10 of the molar value.

system: free PSA; experiment: not given; conditions: not given

Row | cleaved bond | Molecule
1 | Gln-Ser | Ac-AlaAsnGluIleSerTyrGln.vertline.SerAlaSerThrGlu-amide
2 | Gln-Ser | Ac-AlaAsnLysAlaSerTyrGln.vertline.SerAlaSerCys-amide
3 | Gln-Ser | Ac-AlaAsnLysAlaSerTyrGln.vertline.SerAlaSerThrGlu-amide
4 | Gln-Ser | Ac-AlaAsnLysIleSerTyrGln.vertline.SerAlaLysThrGlu-amide
5 | Gln-Ser | Ac-AlaAsnLysIleSerTyrGln.vertline.SerAlaSerThrGlu-amide
6 | Gln-Ser | Ac-AlaAsnLysIleSerTyrGln.vertline.SerSerGlnThrGlu-amide
7 | Gln-Ser | Ac-AlaAsnLysIleSerTyrGln.vertline.SerSerLysThrGlu-amide
8 | Gln-Ser | Ac-AlaAsnLysIleSerTyrGln.vertline.SerSerSerThrGlu-amide
9 | Gln-Ser | Ac-AlaAsnLysIleSerTyrGln.vertline.SerSerSerThrLeu
10 | Gln-Ser | Ac-AlaAsnLysIleSerTyrGln.vertline.SerSerSerThrLeu-amide
11 | Gln-Ser | Ac-AlaAsnLysIleSerTyrGln.vertline.SerSerThrGlu-amide
12 | Gln-Ser | Ac-AlaAsnLysIleSerTyrGln.vertline.SerThrGlu-amide
13 | Tyr-Ser | Ac-AlaAsnLysIleSerTyrTyr.vertline.SerAlaSerThrGlu-amide
14 | Tyr-Ser | Ac-AlaAsnLysIleSerTyrTyr.vertline.SerSerSerThrGlu-amide
15 | Gln-Ser | Ac-AlaAsnLysSerTyrGln.vertline.SerSerThrGlu-amide
16 | Gln-Ser | Ac-AlaAsnSerTyrGln.vertline.SerSerSerThrGlu-amide
17 | Gln-Ser | Ac-AlaAspLysAlaLysTyrGln.vertline.SerSer(Cha)-NHNH2
18 | Gln-Ser | Ac-AlaSerTyrGln.vertline.SerSerLeu-amide
19 | Gln-Ser | Ac-AlaSerTyrGln.vertline.SerSerSerThrGlu-amide
20 | Gln-Ser | Ac-AlaSerTyrGln.vertline.SerSerThrGlu-amide
21 | Gln-Ser | Ac-AsnLysIleSerTyrGln.vertline.SerSer-amide
22 | Gln-Ser | Ac-LysIleSerTyrGln.vertline.SerSer-amide
23 | Gln-Ser | Ac-SerTyrGln.vertline.SerSerSerThrGlu-amide
24 | Gln-Ser | Ac-SerTyrGln.vertline.SerSerThrGlu-amide
25 | Gln-Ser | Ac-hArg(Cha)Gln.vertline.SerSerSer(ethylester-Leu)
26 | Gln-Ser | Ac-hArgTyrGln.vertline.SerSerSer(Ethylester-Leu)
27 | Gln-Ser | Ac-hArgTyrGln.vertline.SerSerSer(MeLeu)
28 | Gln-Ser | AlaAsnLysIleSerTyrGln.vertline.SerSerSerThrGlu-amide

system: LNCaP prostate tumor cells; experiment: In vitro Alamar Blue cytotoxicity assay of non-cleavable oligopeptide-doxorubicin conjugates; type: cell-based, human; conditions: FIG. 4 legend, cells incubated 3 days at 37° C., cell line not named in legend (LNCaP or DuPRO in method)
Procedure: The cytotoxicities of the non-cleaveable oligopeptide-doxorubicin conjugates, prepared as described in Example 4, against a line of cells which is known to be killed by unmodified doxorubicin were assessed with an Alamar Blue assay. Specifically, cell cultures of LNCaP prostate tumor cells, which are a human metastatic prostate adenocarcinoma isolated from a needle biopsy of a lymph node (LNCaP.FGC: American Type Culture Collection, ATCC CRL 1740), or DuPRO cells in 96 well plates were diluted with medium containing various concentrations of a given conjugate (final plate well volume of 200 μl). The cells were incubated for 3 days at 37° C. and then 20 μl of Alamar Blue was added to the assay well. The cells were further incubated and the assay plates were read on a EL-310 ELISA reader at the dual wavelengths of 570 and 600 nm at 4 and 7 hours after addition of Alamar Blue. Relative percentage viability at the various concentration of conjugate tested was then calculated versus control (no conjugate) cultures. Cytotoxicities of unmodified doxorubicin and unmodified oligopeptide were also assessed.

Row | Molecule | pEC50
29 | COc1cccc2c1C(=O)c1c(O)c3c(c(O)c1C2=O)C[C@@](O)(C(=O)CO)C[C@@H]3O[C@H]1C[C@H](N)[C@H](O)[C@H](C)O1 [doxorubicin] | 6.52
